# Source: BindingDB's records for doi:10.1021/jm060996+ (Merck Research Laboratories, 2006)
# Target: Cannabinoid receptor 2 (Homo sapiens, UniProt P34972)
# Experiment: Inhibition of [3H]CP-55940 binding to human recombinant CB2 receptor in CHO cells
# Sequence of Cannabinoid receptor 2 (P34972 whole entry): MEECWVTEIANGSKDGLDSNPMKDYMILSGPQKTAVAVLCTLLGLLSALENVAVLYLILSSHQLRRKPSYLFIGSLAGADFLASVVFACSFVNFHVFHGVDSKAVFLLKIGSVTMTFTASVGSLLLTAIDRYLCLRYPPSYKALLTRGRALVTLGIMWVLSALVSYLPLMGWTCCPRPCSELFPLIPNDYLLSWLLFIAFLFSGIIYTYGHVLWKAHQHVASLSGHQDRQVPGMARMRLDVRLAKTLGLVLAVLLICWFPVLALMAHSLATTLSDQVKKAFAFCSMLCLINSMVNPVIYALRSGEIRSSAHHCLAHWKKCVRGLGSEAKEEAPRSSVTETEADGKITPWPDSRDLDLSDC
row,Structure (SMILES),IC50 [nM]
1,"C[C@H](NC(=O)C(C)(C)Oc1cccc(F)c1)[C@@H](Cc1ccc(Cl)cc1)c1ccccc1 [N-[(1S,2S)-3-(4-chlorophenyl)-1-methyl-2-phenylpropyl]-2-(3-fluorophenyloxy)-2-methylpropanamide]",290
2,"C[C@H](NC(=O)C(C)(C)Oc1cc(F)cc(F)c1)[C@@H](Cc1ccc(Cl)cc1)c1ccccc1 [N-((2S,3S)-4-(4-chlorophenyl)-3-phenylbutan-2-yl)-2-(3,5-difluorophenoxy)-2-methylpropanamide]",200
3,"CC(NC(=O)C(C)(C)Oc1ccc(Cl)cc1)C(Cc1ccc(Cl)cc1)c1ccc(Cl)cc1 (stereo not given) [N-[2,3-bis(4-chlorophenyl)-1-methylpropyl]-2-(4-chlorophenyloxy)-2-methylpropanamide]",1100
4,CC(NC(=O)C(C)(C)Oc1ccc(Cl)cc1)C(Cc1ccc(Cl)cc1)c1ccccc1 (stereo not given) [N-[3-(4-chlorophenyl)-1-methyl-2-phenylpropyl]-2-(4-chlorophenyloxy)-2-methylpropanamide],610
5,"C[C@H](NC(=O)C(C)(C)Oc1ccc(Cl)cc1)[C@@H](Cc1ccc(Cl)cc1)c1ccc(Cl)cc1 [(1S,2S)N-[2,3-bis(4-chlorophenyl)-1-methylpropyl]-2-(4-chlorophenyloxy)-2-methylpropanamide]",> 2000
6,"C[C@H](NC(=O)C(C)(C)Oc1ccccc1)[C@@H](Cc1ccc(Cl)cc1)c1ccccc1 [N-((2S,3S)-4-(4-chlorophenyl)-3-phenylbutan-2-yl)-2-methyl-2-phenoxypropanamide]",450

# Now those with a lower IC50, led by results:
row,IC50 [nM],Structure (SMILES)
1,190,"C[C@H](NC(=O)C(C)(C)Oc1cccc(Cl)c1)[C@@H](Cc1ccc(Cl)cc1)c1ccccc1 [N-[(1S,2S)-3-(4-chlorophenyl)-1-methyl-2-phenylpropyl]-2-(3-chlorophenyloxy)-2-methylpropanamide]"
2,140,"C[C@H](NC(=O)C(C)(C)Oc1ccc(C(F)(F)F)cn1)[C@@H](Cc1ccc(Cl)cc1)c1ccccc1 [N-((2S,3S)-4-(4-chlorophenyl)-3-phenylbutan-2-yl)-2-methyl-2-(5-(trifluoromethyl)pyridin-2-yloxy)propanamide]"
3,100,"C[C@H](NC(=O)C(C)(C)Oc1ccc(Cl)cn1)[C@@H](Cc1ccc(Cl)cc1)c1ccccc1 [N-[(1S,2S)-3-(4-chlorophenyl)-1-methyl-2-phenylpropyl]-2-[(5-chloro-2-pyridin-2-yl)oxy]-2-methylpropanamide]"
4,88,"C[C@H](NC(=O)C(C)(C)Oc1ccccn1)[C@@H](Cc1ccc(Cl)cc1)c1ccccc1 [N-[(1S,2S)-3-(4-chlorophenyl)-1-methyl-2-phenyl-propyl]-2-(2-pyridyloxy)-2-methylpropanamide]"
